The results in this text go back to paper PMC10408569, “Recruitment of hexahydroquinoline as anticancer scaffold targeting inhibition of wild and mutants EGFR (EGFR^WT, EGFR^T790M, and EGFR^L858R)” (Journal of Enzyme Inhibition and Medicinal Chemistry, 2023).

The structures appear in SMILES notation.

This data set is described as follows: Cytotoxic effects in vitro on normal lung cells. The format is cell-based. As to conditions: IMR-90 normal lung fibroblast cells; human normal lung fibroblast (IMR-90); read-out: IC50, cytotoxicity towards human normal cells IMR-90.

The term IC50 denotes the concentration needed to halve the response being measured.

As to `C#Cc1cccc(Nc2ncnc3cc(OCCOC)c(OCCOC)cc23)c1` [Erlotinib, erlotinib, reference compound], the IC50 was determined as 39.6 ± 1.15 µM.
